Four compounds from patent publication US9981918B2, “Kynurenine-3-monooxygenase inhibitors, pharmaceutical compositions, and methods of use thereof” (CHDI Foundation, Inc., priority 2011, dated 2018) can be followed below.

In this test the test system is KMO. The test is described as follows: KMO inhibition: L-Kynurenine hydroxylation to 3-Hydroxy-Kynurenine monitored by LC/MS. Type of test: biochemical. The following applies: compound at 10 uM; footnote: some portion of activity of amides may be due to contribution of acid precursor. The method, then: A generalized procedure for monitoring L-Kynurenine (KYN) hydroxylation to form product 3-Hydroxy-Kynurenine (30H-KYN) by LC/MS is described below. Product is quantified by multiple reaction monitoring using MS.
A method of monitoring L-Kynurenine (KYN) hydroxylation to form product 3-Hydroxy-Kynurenine (30H-KYN) by LC/MS is described below. Product is quantified by multiple reaction monitoring.
• Compound: Stock concentrations: 10 mM in 100% DMSO • Enzyme: KMO enzyme prepared at Evotec via mitochondria isolation from CHO-GST HIS KMO cells • Substrate: L-Kynurenine (Sigma: Cat# K3750) • [stock concentration: 10 mM in 100 mM potassium phosphate buffer, pH 7.4]
A method of monitoring L-Kynurenine (KYN) hydroxylation to form 3-Hydroxy-Kynurenine (30H-KYN) by LC/MS is described. Product is quantified by multiple reaction monitoring (MRM method).
In general, % Inhibition refers to the change of the read-out against control, counted positive when it falls. As for `O=S(=O)(Nc1cc(-c2ccc(OC3CC3)c(Cl)c2)ncn1)c1ccc(F)cc1` [N-[6-(3-chloro-4-cyclopropoxyphenyl)pyrimidin-4-yl]-4-fluorobenzene-1-sulfonamide], the “% Inhibition at 10 uM*” value is listed as 98%.
Regarding `O=S(=O)(Nc1cc(-c2ccc(OC3CC3)c(Cl)c2)ncn1)c1ccccc1` [N-[6-(3-chloro-4-cyclopropoxyphenyl)pyrimidin-4-yl]benzenesulfonamide], the “% Inhibition at 10 uM*” value is listed as 73%.
The value for `O=S(=O)(Nc1cc(-c2ccc(OC3CC3)c(Cl)c2)ncn1)C1CC1` [N-[6-(3-chloro-4-cyclopropoxyphenyl)pyrimidin-4-yl]cyclopropanesulfonamide] was 33%; that for `O=C(OC[C@H]1OC(O)[C@H](O)[C@@H](O)[C@@H]1O)c1cc(-c2ccc(OC3CC3)c(Cl)c2)ncn1` (stereo partly drawn) [[(2R,3S,4S,5R)-3,4,5,6-tetrahydroxyoxan-2-yl]methyl 6-(3-chloro-4-cyclopropoxyphenyl)pyrimidine-4-carboxylate] was 102%.
